In one data set the target is MDR1 (Homo sapiens (Human), UniProt P08183). Put plainly: in vitro. Conditions: MDCK-MDR1.
Data set [1] is described as follows: Kinetic solubility assay (CLND), pH 6.8. The class given is physicochemical. The conditions noted are these: potassium phosphate buffer pH 6.8, 2% DMSO, 24 hours at ambient temperature; for solubility kinetic at 24 h: aqueous buffer, kinetic from dmso stock.
A further data set addresses IRAK4 (Homo sapiens (Human), UniProt Q9NWZ3). Description: IRAK4 MSD biochemical assay (2-hour 1 mM ATP). Conditions: 0.1 nM IRAK4, 1 mM ATP, 2 hour at room temperature.

Data on 32 compounds can be found in patent US20240116922A1, “IMIDAZO[1,2-A]PYRIDINE DERIVATIVES AS IRAK4 INHIBITORS AND THEIR USE IN THE TREATMENT OF DISEASE” (BIOGEN MA INC., priority 2020, published 2024).

One may read the efflux ratio as the permeability from basolateral to apical divided by that in the opposite direction, in the common usage. By kinetic solubility is commonly meant the concentration staying in solution when a stock, usually in DMSO, is diluted into the medium. As a reminder, the IC50 is the concentration at which inhibition is half-maximal. A high value points to weaker potency in that assay.

≈ marks a conversion by molar mass, not a printed value.

Sequence of MDR1 (P08183 whole entry): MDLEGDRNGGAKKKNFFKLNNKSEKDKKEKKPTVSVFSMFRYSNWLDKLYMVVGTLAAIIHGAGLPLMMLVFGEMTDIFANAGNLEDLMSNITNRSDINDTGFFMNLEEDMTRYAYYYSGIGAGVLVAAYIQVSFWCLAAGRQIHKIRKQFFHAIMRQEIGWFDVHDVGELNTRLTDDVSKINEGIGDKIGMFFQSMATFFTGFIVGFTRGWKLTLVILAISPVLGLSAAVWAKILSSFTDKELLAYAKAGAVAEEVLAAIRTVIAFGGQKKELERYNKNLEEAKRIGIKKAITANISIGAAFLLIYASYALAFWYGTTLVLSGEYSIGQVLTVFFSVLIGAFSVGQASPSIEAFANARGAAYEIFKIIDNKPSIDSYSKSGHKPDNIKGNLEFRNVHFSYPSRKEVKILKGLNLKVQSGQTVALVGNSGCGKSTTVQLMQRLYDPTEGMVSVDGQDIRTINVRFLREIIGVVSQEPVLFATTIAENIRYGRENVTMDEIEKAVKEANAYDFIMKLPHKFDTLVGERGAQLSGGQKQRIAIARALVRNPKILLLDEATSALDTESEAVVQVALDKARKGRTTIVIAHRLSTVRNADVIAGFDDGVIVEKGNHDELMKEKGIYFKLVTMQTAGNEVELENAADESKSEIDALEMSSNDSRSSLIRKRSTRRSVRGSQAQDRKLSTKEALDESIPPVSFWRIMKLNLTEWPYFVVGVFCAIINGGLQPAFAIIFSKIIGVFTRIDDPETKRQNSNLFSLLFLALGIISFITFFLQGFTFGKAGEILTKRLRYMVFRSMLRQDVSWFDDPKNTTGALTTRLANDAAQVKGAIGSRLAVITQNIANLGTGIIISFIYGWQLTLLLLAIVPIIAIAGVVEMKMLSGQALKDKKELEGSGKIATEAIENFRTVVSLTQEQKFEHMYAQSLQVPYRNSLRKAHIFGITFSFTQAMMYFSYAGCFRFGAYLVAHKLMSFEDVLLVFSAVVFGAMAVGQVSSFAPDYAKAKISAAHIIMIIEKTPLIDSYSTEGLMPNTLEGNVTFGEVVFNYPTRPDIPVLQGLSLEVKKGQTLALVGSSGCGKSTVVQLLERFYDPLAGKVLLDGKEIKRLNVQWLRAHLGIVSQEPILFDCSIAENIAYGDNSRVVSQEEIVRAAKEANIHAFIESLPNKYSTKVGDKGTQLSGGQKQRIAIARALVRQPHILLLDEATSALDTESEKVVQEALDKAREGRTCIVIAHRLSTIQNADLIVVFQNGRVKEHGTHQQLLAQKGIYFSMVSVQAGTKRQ
Sequence of IRAK4 (Q9NWZ3 whole entry): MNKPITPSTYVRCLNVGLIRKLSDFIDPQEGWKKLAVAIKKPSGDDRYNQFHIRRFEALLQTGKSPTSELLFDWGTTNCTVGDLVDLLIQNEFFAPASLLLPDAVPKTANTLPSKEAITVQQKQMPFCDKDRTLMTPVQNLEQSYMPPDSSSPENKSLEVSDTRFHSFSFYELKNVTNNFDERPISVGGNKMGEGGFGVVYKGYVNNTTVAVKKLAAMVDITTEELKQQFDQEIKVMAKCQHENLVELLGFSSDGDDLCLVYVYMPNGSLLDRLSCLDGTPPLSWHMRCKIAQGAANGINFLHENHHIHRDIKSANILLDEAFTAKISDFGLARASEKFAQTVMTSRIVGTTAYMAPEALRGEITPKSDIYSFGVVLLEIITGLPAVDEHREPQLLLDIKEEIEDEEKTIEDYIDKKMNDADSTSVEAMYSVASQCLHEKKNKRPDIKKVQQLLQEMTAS
Method for IRAK4: The 2-hour 1 mM ATP Biochemical Assay employed a MesoScale Detection (MSD) format.
The activity was quenched with 11 μl of 70 mM EDTA, pH 8.
To detect the phosphorylated biotinylated peptide substrate, 30 μl of the quenched reaction mixture was added to equivalent wells of a 384 well streptavidin coated MesoScale plate (Meso Scale Discovery #L21SA-1). After a 1 hour incubation of the plate for 1 hour at room temperature with gentle mixing, the plate wells were washed 3 times with 50 mM Tris, pH 7.5, 150 mM NaCl, 0.02% Tween-20.
A 25 μl volume of 1:500 anti-P-Threonine Rabbit polyclonal Antibody plus 1:500 Goat-anti-Rabbit Sulfo Tag Antibody (Meso Scale Discovery R32AB-1) in 50 mM Tris, pH 7.5, 150 mM NaCl, 0.02% Tween-20 plus 2% BSA was then added to each well. After a 1-hour incubation of the plate for 1 hour at room temperature with gentle mixing, the plate wells were washed, 3 times with 50 mM Tris, pH 7.5, 150 mM NaCl, 0.02% Tween-20.

In the case of `CC[C@H](C)Oc1nc2nc(C34COC(C)(C3)C4)cn2cc1C(=O)Nc1cccn([C@@H]2C[C@@H]2F)c1=O` (mixture of isomers) [Example 42, 7-((S)-sec-butoxy)-N-(1-(cis-2-fluorocyclopropyl)-2-oxo-1,2-dihydropyridin-3-yl)-2-(1-methyl-2-oxabicyclo[2.1.1]hexan-4-yl)imidazo[1,2-a]pyrimidine-6-carboxamide], the efflux ratio at 120 min, 1 μM at MDR1 stood at 10.8. In data set [1], this compound displayed a solubility (kinetic) at 24 h of 72.5 µg/mL. On the same counts, the results for `CC[C@H](C)Oc1cc2nc(C34COC(C)(C3)C4)cn2cc1C(=O)Nc1cccn(C2CC2F)c1=O` (mixture of isomers) [Example 96, 7-((S)-sec-butoxy)-N-(1-cis-(2-fluorocyclopropyl)-2-oxo-1,2-dihydropyridin-3-yl)-2-(1-methyl-2-oxabicyclo[2.1.1]hexan-4-yl)imidazo[1,2-a]pyridine-6-carboxamide] are 10.4 and 75.7 µg/mL. `CC(C)Oc1nc2nc(C34COC(C3)C4)cn2cc1C(=O)Nc1cccn([C@@H]2C[C@@H]2F)c1=O` (racemic) [Example 87, (rac)-Cis-2-(2-oxabicyclo[2.1.1]hexan-4-yl)-N-(1-(2-fluorocyclopropyl)-2-oxo-1,2-dihydropyridin-3-yl)-7-isopropoxyimidazo[1,2-a]pyrimidine-6-carboxamide] had a kinetic solubility at 24 h in data set [1] of 48.4 µg/mL (≈ 107 µM). `COC[C@]12C[C@](c3cn4cc(C(=O)Nc5cccn(C6CC6F)c5=O)c(OC(C)C)nc4n3)(CO1)C2` (mixture of isomers) [Example 90, (rac)-Cis-N-(1-(2-fluorocyclopropyl)-2-oxo-1,2-dihydropyridin-3-yl)-7-isopropoxy-2-(1-(methoxymethyl)-2-oxabicyclo[2.1.1]hexan-4-yl)imidazo[1,2-a]pyrimidine-6-carboxamide]: the “pH 6.8 Solubility (ug/mL)” value in data set [1] is recorded as 74.8 ug/mL. In turn, `CC(C)Oc1nc2nc(C34COC(C)(C3)C4)cn2cc1C(=O)Nc1cccn([C@@H]2C[C@H]2C)c1=O` (racemic) [Example 95, (rac)-trans-7-isopropoxy-2-(1-methyl-2-oxabicyclo[2.1.1]hexan-4-yl)-N-(1-(2-methylcyclopropyl)-2-oxo-1,2-dihydropyridin-3-yl)imidazo[1,2-a]pyrimidine-6-carboxamide] registered a kinetic solubility at 24 h in data set [1] of 35.3 µg/mL (≈ 76.2 µM). On the same count and under the same terms, in the case of `CC(C)Oc1cc2nc(C34COC(C)(C3)C4)cn2cc1C(=O)Nc1cccn([C@@H]2C[C@@H]2F)c1=O` (racemic) [Example 97, (rac)-Cis-N-(1-(2-fluorocyclopropyl)-2-oxo-1,2-dihydropyridin-3-yl)-7-isopropoxy-2-(1-methyl-2-oxabicyclo[2.1.1]hexan-4-yl)imidazo[1,2-a]pyridine-6-carboxamide] it was 59.5 µg/mL (≈ 128 µM). As to `CC(C)Oc1cc2nc([C@]34CC[C@](C)(C3)OC4)cn2cc1C(=O)Nc1cccc(C(F)F)n1` (single isomer, unassigned) [Comparator 3A, reference compound], on MDR1, the efflux ratio at 120 min, 1 μM is 0.7. This compound yielded a kinetic solubility at 24 h in data set [1] of 0.8 µg/mL (≈ 1.75 µM). The corresponding values for `Cc1cnc2c(NC(=O)c3cn4cc([C@@]56CC[C@@](C)(C5)OC6)nc4nc3OC(C)C)cnn2c1` (single isomer, unassigned) [Comparator 4B, reference compound] are 2.3 and 2 µg/mL (≈ 4.33 µM). Turning to `CC(C)Oc1nc2nc([C@]34CC[C@](C)(C3)OC4)cn2cc1C(=O)Nc1cccn(C2CC2)c1=O` (single isomer, unassigned) [Example 13], the solubility (kinetic) at 24 h in data set [1] came to 20.3 µg/mL (≈ 43.8 µM). `CC(C)Oc1nc2nc([C@]34CC[C@](CF)(C3)OC4)cn2cc1C(=O)Nc1cccn(C2CC2)c1=O` (single isomer, unassigned) [Example 47] showed a solubility (kinetic) at 24 h in data set [1] of 9 µg/mL (≈ 18.7 µM).

Compound `CC(C)Oc1nc2nc(C34COC(C3)C4)cn2cc1C(=O)Nc1cccn([C@@H]2C[C@@H]2F)c1=O` (single isomer, unassigned) [Example 88] returned a solubility (kinetic) at 24 h in data set [1] of 20.7 µg/mL (≈ 45.6 µM). This solubility kinetic at 24 h is about 2.3-fold higher than that of the compound before. Same read-out and setting: in the case of `CC(C)Oc1nc2nc(C34COC(C3)C4)cn2cc1C(=O)Nc1cccn([C@H]2C[C@H]2F)c1=O` (single isomer, unassigned) [Example 89] it was 23.9 µg/mL (≈ 52.7 µM). Compound `CC(C)Oc1c(C(=O)Nc2cccn([C@@H]3C[C@@H]3F)c2=O)cn2cc(C34COC(C)(C3)C4)nc2c1F` (single isomer, unassigned) [Example 92] came in with an IC50 on IRAK4 of 61 nM. As for `CC(C)Oc1nc2nc([C@]34CC[C@](C)(C3)OC4)cn2cc1C(=O)Nc1cccn([C@@H]2C[C@H]2F)c1=O` (single isomer, unassigned) [Example 120], in data set [1], the kinetic solubility at 24 h came to 76.7 µg/mL (≈ 159 µM). On the same count and under the same terms, in the case of `CC(C)Oc1nc2nc([C@]34CC[C@](C)(C3)OC4)cn2cc1C(=O)Nc1cccn([C@H]2C[C@@H]2F)c1=O` (single isomer, unassigned) [Example 121] it was 33.9 µg/mL (≈ 70.4 µM); in that of `CC(C)Oc1nc2nc([C@@]34CC[C@@](C)(C3)OC4)cn2cc1C(=O)Nc1cccn([C@@H]2C[C@H]2F)c1=O` (single isomer, unassigned) [Example 122], 48.8 µg/mL (≈ 101 µM). Still for that read-out and setting: to `CC(C)Oc1nc2nc([C@@]34CC[C@@](C)(C3)OC4)cn2cc1C(=O)Nc1cccn([C@H]2C[C@@H]2F)c1=O` (single isomer, unassigned) [Example 123] belongs 73 µg/mL (≈ 152 µM). `CC(C)Oc1c(C(=O)Nc2cccn([C@@H]3C[C@@H]3F)c2=O)cn2cc([C@@]34CC[C@@](C)(C3)OC4)nc2c1F` (single isomer, unassigned) [Example 124] returned an IC50 against IRAK4 of 45.5 nM. As to `CC(C)Oc1cc2nc(C34COC(C)(C3)C4)cn2cc1C(=O)Nc1cccn([C@@H]2C[C@H]2F)c1=O` (single isomer, unassigned) [Example 154], the kinetic solubility at 24 h in data set [1] was 37.2 µg/mL (≈ 79.7 µM). On the same count and under the same terms, in the case of `CC(C)Oc1nc2nc(C34COC(C)(C3)C4)cn2cc1C(=O)Nc1cccn([C@@H]2C[C@H]2C)c1=O` (single isomer, unassigned) [Example 156] it was 62.8 µg/mL (≈ 135 µM). Compound `CC[C@H](C)Oc1cc2nc(C34COC(C)(C3)C4)cn2cc1C(=O)Nc1cccn([C@@H]2C[C@@H]2F)c1=O` (single isomer, unassigned) [Example 160] gave an IC50 against IRAK4 of 3.1 nM. That is a single-digit nanomolar value. Still for that read-out and setting: to `CC(C)Oc1cc2nc([C@@]34CC[C@@](C)(C3)OC4)cn2cc1C(=O)Nc1cccn([C@@H]2C[C@@H]2F)c1=O` (single isomer, unassigned) [Example 168] belongs 7.5 nM. Still for that read-out and setting: to `CC(C)Oc1cc2nc([C@]34CC[C@](C)(C3)OC4)cn2cc1C(=O)Nc1cccn([C@@H]2C[C@@H]2F)c1=O` (single isomer, unassigned) [Example 170] belongs 9.4 nM.

In the case of `CC(C)Oc1nc2nc(C34CCC(C)(CC3)OC4)cn2cc1C(=O)Nc1cccc(C(F)F)n1` [Comparator 5A, N-(6-(difluoromethyl)pyridin-2-yl)-7-isopropoxy-2-(1-methyl-2-oxabicyclo[2.2.2]octan-4-yl)imidazo[1,2-a]pyrimidine-6-carboxamide, reference compound], the efflux ratio at 120 min, 1 μM on MDR1 came to 1. The compound further displayed a kinetic solubility at 24 h in data set [1] of 1.5 µg/mL (≈ 3.18 µM). The corresponding values for `Cc1cnc2c(NC(=O)c3cn4cc(C56CCC(C)(CC5)OC6)nc4cc3OC(C)C)cnn2c1` [Comparator 5B, 7-isopropoxy-2-(1-methyl-2-oxabicyclo[2.2.2]octan-4-yl)-N-(6-methylpyrazolo[1,5-a]pyrimidin-3-yl)imidazo[1,2-a]pyridine-6-carboxamide, reference compound] are 1.4 and 5.2 µg/mL (≈ 11 µM).

As to `CCC12CC(c3cn4cc(C(=O)Nc5cccn(C6CC6)c5=O)c(OC(C)C)nc4n3)(CO1)C2` [Example 31], the kinetic solubility at 24 h in data set [1] was 24.2 µg/mL (≈ 52.2 µM). In turn, `CC(C)Oc1nc2nc(C34CCC(CF)(C3)OC4)cn2cc1C(=O)Nc1cccn(C2CC2)c1=O` (stereo not drawn) [Example 45, N-(1-cyclopropyl-2-oxo-1,2-dihydropyridin-3-yl)-2-(1-(fluoromethyl)-2-oxabicyclo[2.2.1]heptan-4-yl)-7-isopropoxyimidazo[1,2-a]pyrimidine-6-carboxamide] had a kinetic solubility at 24 h in data set [1] of 6.8 µg/mL (≈ 14.1 µM). This solubility kinetic at 24 h is about 3.6-fold lower than that of the compound before. On the same count and under the same terms, in the case of `CC(C)Oc1nc2nc(C34COC(C)(C3)C4)cn2cc1C(=O)Nc1ccnn(C2CC2)c1=O` [Example 71, N-(2-cyclopropyl-3-oxo-2,3-dihydropyridazin-4-yl)-7-isopropoxy-2-(1-methyl-2-oxabicyclo[2.1.1]hexan-4-yl)imidazo[1,2-a]pyrimidine-6-carboxamide] it was 8.9 µg/mL (≈ 19.8 µM).

In the case of `CC(C)Oc1cc2nc(C34COC(C)(C3)C4)cn2cc1C(=O)Nc1ccnn(C2CC2)c1=O` [Example 76], the efflux ratio at 120 min, 1 μM on MDR1 was determined as 3.6. Further, the solubility (kinetic) at 24 h in data set [1] turned out to be 50.9 µg/mL (≈ 113 µM). With `CC(C)Oc1nc2nc(C34COC(C)(C3)C4)cn2cc1C(=O)Nc1cccn(C2C[C@]2(C)C(F)F)c1=O` (stereo partly drawn) [Example 144, N-(1-((1S,2S)-2-(difluoromethyl)-2-methylcyclopropyl)-2-oxo-1,2-dihydropyridin-3-yl)-7-isopropoxy-2-(1-methyl-2-oxabicyclo[2.1.1]hexan-4-yl)imidazo[1,2-a]pyrimidine-6-carboxamide], the kinetic solubility at 24 h in data set [1] was 34.4 µg/mL (≈ 67 µM). `COCC12CC(c3cn4cc(C(=O)Nc5cccn([C@@H]6C[C@@H]6F)c5=O)c(OC(C)C)nc4n3)(CO1)C2` [Example 162, N-(1-((1R,2S)-2-fluorocyclopropyl)-2-oxo-1,2-dihydropyridin-3-yl)-7-isopropoxy-2-(1-(methoxymethyl)-2-oxabicyclo[2.1.1]hexan-4-yl)imidazo[1,2-a]pyrimidine-6-carboxamide]: the efflux ratio at 120 min, 1 μM at MDR1 was 38.2.

Regarding `COCC12CC(c3cn4cc(C(=O)Nc5cccn([C@H]6C[C@H]6F)c5=O)c(OC(C)C)nc4n3)(CO1)C2` [Example 163, N-(1-((1S,2R)-2-fluorocyclopropyl)-2-oxo-1,2-dihydropyridin-3-yl)-7-isopropoxy-2-(1-(methoxymethyl)-2-oxabicyclo[2.1.1]hexan-4-yl)imidazo[1,2-a]pyrimidine-6-carboxamide], in data set [1], the solubility (kinetic) at 24 h was 66 µg/mL (≈ 133 µM).
